A short description of this assay: Inhibition of human CXCR3 by chemotaxis assay.

Usually IC50 stands for the concentration that inhibits the measured activity by half. High values mean a need for much substance, low ones inhibition by little substance. As to `C[C@H]1CN(c2ncc(C(=O)NCc3ccc(F)c(F)c3)cc2Cl)CCN1C1CCN(Cc2ccc(Cl)cc2)CC1` [(S)-5-chloro-6-(4-(1-(4-chlorobenzyl)piperidin-4-yl)-3-methylpiperazin-1-yl)-N-(3,4-difluorobenzyl)nicotinamide], the IC50 was determined as 23 nM.

The values above are taken from BindingDB's records for doi:10.1016/j.bmcl.2010.12.114 (Ligand Pharmaceuticals, 2011).
